The test system of one data set is SK-MEL-2. Nature of the data set: SRB anti-cancer assay, Melanoma. Format: cell-based, human. To be noted: SK-MEL-2 (Melanoma), 48 h.
In a further data set the test system is RXF 393. Kind of data set: SRB anti-cancer assay, Renal Cancer. Format: cell-based, human. As to conditions: RXF 393 (Renal Cancer), 48 h; for CC50: read-out: LC50 (the source's name).
Another data set relates to Hepatitis B virus (HBV). Nature of the data set: Anti-HBV assay in 2.2.15 cells (virion DNA, HBV RI). Format: cell-based. To be noted: for HBV RI, percentage of control / Virion DNA, percentage of control: 10 μM, day 9, 2.2.15 cells. On the procedure:
The anti-HBV assays were performed according to the published protocol of Korba and Milman, (Korba, B. E.; Milman, G. Antiviral Res., 15, 217 1991), using cultures of 2.2.15 cells. In brief, the assay consisted of (a) seeding the chronically HBV-producing human liver cells (Acs et al. Proc. Nat. Acad. Sci., 84, 464 1987) into 24-well tissue culture plates, and growing to confluence, (b) adding test compounds daily for a continuous 9-day period, harvesting culture media after day 9 and (c) lysing treated cells 24 hours following day 9 of treatment for the analysis of extracellular virion DNA and intracellular HBV genomic forms.
(§1) Anti-HBV activity and the toxicity against confluent 2.2.15 cells were determined by the previously described procedure (Korba, B. E., et al. Antivir. Res., 19:55-70, 1992; Korba, B. E., et al. Antivir. Res., 15:217-228, 1991). Briefly, confluent cultures of HBV transfected 2.2.15 cells were maintained on either 96-well or 24-well flat-bottomed tissue culture plates in RPMI 1640 medium with 2% fetal bovine serum (FBS). The cells were treated with test compounds daily for nine consecutive days. The culture media were harvested on day 9 to quantify the amount of virion DNA. On day 10, the cells were lysed to quantify the amount of intracellular HBV replicative intermediates (RI). The quantification of virion DNA and the HBV RI were done by blot hybridization methods (Korba, B. E., et al. Antivir. Res., 19:55-70, 1992; Korba, B. E., et al. Antivir. Res., 15:217-228, 1991). Cellular toxicity against separate cultures of confluent 2.2.15 cells was measured after treatment with the compounds for nine days under identical culture conditions as those used for the antiviral assay (Korba, B. E., et al. Antivir. Res., 19:55-70, 1992). Uptake of neutral red dye by treated cells was compared with dye uptake by untreated control cells (Korba, B. E., et al. Antivir. Res., 19:55-70, 1992).

Data set [1] has as its system Varicella Zoster virus (VZV). Kind of data set: Antiviral test against VZV. Format: cell-based. On the procedure: (§2) These compounds were also tested for their effects on HIV (Weislow, O. , et al., J. Natl. Cancer Inst., 81:577-586, 1989), herpes simplex virus (HSV)-1, HSV-2, cytomegalovirus (CMV), Varicella Zoster virus (VZV) and Epstein-Barr virus (EBV) replication (National Institute of Allergy and Infectious Diseases (NIAID), NIH, Bethesda, Md.).

The next data set has as its system cytomegalovirus (CMV). Kind of data set: Antiviral test against CMV. Format: cell-based. On the procedure: as §2
Data set [2] deals with HBV ribonucleic acids (RNA). Nature of the data set: HBV RNA levels in 2.2.15 cells (blot hybridization). Format: cell-based, Hepatitis B virus. To be noted: 10 μM, day 9, 2.2.15 cells. On the procedure:
as §1
These compounds were evaluated for their ability to inhibit viral RNA synthesis in 2.2.15 cells. Since HBV uses host cellular RNA polymerase II during the transcription of viral RNA from the covalently closed circular HBV DNA during its replication, any effect on the synthesis of viral RNA by these compounds would mean interference with the cellular RNA polymerase which could lead to unacceptable cellular toxicity.

The next data set concerns 2.2.15 cells. Kind of data set: Toxicity in confluent 2.2.15 cells (neutral red dye uptake). Format: cell-based, human.
Data set [3] has as its system HBV proteins (HBsAg, HBcAg, HBeAg). Nature of the data set: HBV protein levels in 2.2.15 cells (semi-quantitative EIA). Format: cell-based, Hepatitis B virus. As to conditions: 10 μM, day 9, 2.2.15 cells.
A further data set concerns HSV-2. Kind of data set: Antiviral test against HSV-2. Format: cell-based. On the procedure:
as §2

Data set [4] deals with T1, adenosine deaminase from calf intestinal mucosa (Bos taurus, UniProt P56658).
T1 construct: against adenosine deaminase from calf intestinal mucosa; from tissue; host or cells: calf intestinal mucosa
T1 sequence (P56658 whole entry): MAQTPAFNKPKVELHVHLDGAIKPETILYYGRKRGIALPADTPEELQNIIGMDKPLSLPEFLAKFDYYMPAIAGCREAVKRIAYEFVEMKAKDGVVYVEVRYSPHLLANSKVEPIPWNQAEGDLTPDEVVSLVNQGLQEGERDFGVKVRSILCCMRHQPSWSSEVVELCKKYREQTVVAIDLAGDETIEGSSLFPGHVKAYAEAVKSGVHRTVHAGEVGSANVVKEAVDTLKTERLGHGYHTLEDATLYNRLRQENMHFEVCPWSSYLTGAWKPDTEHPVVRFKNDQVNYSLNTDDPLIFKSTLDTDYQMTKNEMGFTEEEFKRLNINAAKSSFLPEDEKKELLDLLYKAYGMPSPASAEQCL
Nature of the data set: Adenosine deaminase assay (Example 17). Format: biochemical. To be noted: Lineweaver-Burk plots; with and without preincubation. On the procedure: Inhibition of adenosine deaminase (ADA) by Compound 17-1 and Compound 17-2 (see FIG. 13 for chemical structures; note that structure 1 FIG. 13 is the same as that in figure except that it is written in an anti-conformation in the former) was investigated in vitro against adenosine deaminase from calf intestinal mucosa in a 50 mM phosphate buffer (pH=7.4) at 25° C., by spectro-photometrically monitoring the rate of hydrolysis of substrate adenosine at 265 nm. Stock solutions of the substrate, enzyme, and inhibitors were prepared using a 50 mM phosphate buffer (pH 7.4). The enzyme kinetics was followed by measuring the change in optical density (decrease in absorbance) per minute of the substrate adenosine. By keeping the concentration of the inhibitor constant, and by varying the substrate concentration, a set of kinetic data was obtained. Additional sets of data were generated using different concentrations of the inhibitor. […]
(a) pre-incubation of the enzyme with the inhibitor; here the enzyme (ADA 10 μL) and inhibitor were preincubated for 10 min in a calculated amount of phosphate buffer (50 mM, pH 7.5 ) at 25° C. and the reaction was initiated by the addition of substrate, adenosine, and (b) without preincubation; here the reaction was started by addition of ADA (10 μL) to a mixture of adenosine and inhibitor in the phosphate buffer at 25° C. […]

Where [5] appears, read: extracellular HBV virion DNA, 10 fold inhibition, 9 days, read-out: EC90 Virion.
[6] abbreviates: extracellular HBV virion DNA, 9 days, read-out: EC50 Virion.
The mark [7] stands for this setting: confluent 2.2.15 cells, 9 days, neutral red dye uptake, read-out: CC50.

From US6677310B1, “Ring-expanded nucleosides and nucleotides” (Nabi, priority 1999, dated 2004) come the findings set out here.

Where two headings read alike, the source gives them in different places.

For orientation: GI50 means the concentration giving 50% growth inhibition. Read a low GI50 as greater sensitivity of the cells. Broadly, the LC50 is the concentration lethal to half of the exposed cells or organisms. Low readings indicate a more lethal substance, high ones a less lethal substance. In general, TGI refers to the concentration at which net growth stops. Low values mean greater sensitivity of the cells, high ones lower sensitivity of the cells. For the compound `N=c1nc(N)c2ncn([C@@H]3O[C@H](COC(=O)c4ccccc4)[C@@H](OC(=O)c4ccccc4)[C@H]3OC(=O)c3ccccc3)c2c(N)n1` [4,8-Diamino-6H-6-imino-1(2′,3′,5′-tri-O-benzoyl-β-D-ribofuranosyl)imidazo[4,5-e][1,3]diazepine], in the data set on SK-MEL-2, growth was halved (GI50) at 2.6 µM, the LC50 stood at 26.2 µM and the TGI worked out at 6.87 µM.

By EC90 is commonly meant the point of the concentration-response curve where the effect stands at 90%. For orientation: EC50 means the concentration at which the effect is half-maximal. Take `N=c1[nH]c(=O)c2ncn([C@@H]3O[C@H](CO)[C@@H](O)[C@H]3O)c2c(=O)[nH]1` [Compound 14-1, 6-Imino-6H-1-β-D-ribofuranosyl-4,5,7,8-tetrahydroimidazo[4,5-e][1,3]diazepine-4,8-dione]: the concentration for total growth inhibition (TGI) in the data set with RXF 393 is above 100 µM. For the same compound, the CC50 with RXF 393 is above 100 µM; in the data set on 2.2.15 cells (2.2.15 cells, Example 13, read-out: CC50 (cellular toxicity)), 2400 µM; in the data set on 2.2.15 cells (setting [7]), 2430 µM. Further, the “HBV RI, percentage of control” value in the data set on Hepatitis B virus (HBV) turned out to be 15 ± 2 %. Further, the “Virion DNA, percentage of control” value with Hepatitis B virus (HBV) is given as 4 ± 1 %. For the same compound, the EC90 with Hepatitis B virus (HBV) (assay repeated three times, read-out: average EC90 for HBV virion inhibition) amounted to 1.29 µM; in the data set with Hepatitis B virus (HBV) (setting [5]), 0.989 ± 0.11 µM; with Hepatitis B virus (HBV) (intracellular HBV DNA replicative intermediates, 10 fold inhibition, 9 days, read-out: EC90 HBV RI), 7.3 ± 0.7 µM. The EC50 came to 0.131 µM in the data set on Hepatitis B virus (HBV) (setting [6]); 0.604 µM with Hepatitis B virus (HBV) (intracellular HBV DNA replicative intermediates, 9 days, read-out: EC50 HBV RI); 0.17 µM in the data set with Hepatitis B virus (HBV) (transfected hepatoma cell line 2.2.15, Example 13, read-out: EC50 (anti-HBV activity)). In addition, the “antiviral activity against VZV” value in data set [1] is recorded as “no antiviral activity”. For the same compound, the “antiviral activity against CMV” value in the data set with cytomegalovirus (CMV) was “no antiviral activity”. Also, in data set [2], the “2.1 Kb RNA, percentage of control” value was 96 ± 7%. Further, the “3.6 Kb RNA, percentage of control” value in data set [2] worked out at 89 ± 9%. Moreover, the “HBcAg, percentage of control” value in [3] came out at 75 ± 4%. In data set [3], the “HBeAg, percentage of control” value is 50 ± 5 %. Further, in [3], the “HBsAg, percentage of control” value was found to be 67 ± 6%. Also, the “antiviral activity against HSV-2” value in the data set on HSV-2 is given as “no antiviral activity”.

Turning to `N=c1nc(N)c2ncn([C@@H]3O[C@H](CO)[C@@H](O)[C@H]3O)c2c(N)n1` [Compound 14-2, 4,8-Diamino-6H-6-imino-1-β-D-ribofuranosylimidazo[4,5-e][1,3]diazepine], in the data set on RXF 393, the GI50 stood at 7.51 µM, the TGI is 25.6 µM and the CC50 was determined as 74.2 µM. In the data set on Hepatitis B virus (HBV), the “HBV RI, percentage of control” value amounted to 6 ± 1 % and the “Virion DNA, percentage of control” value is 1 ± 1 %. Besides, in the data set with Hepatitis B virus (HBV) (setting [5]), the 90% effect concentration (EC90) is 4.7 ± 0.5 µM. In addition, the half-maximal effective concentration (EC50) with Hepatitis B virus (HBV) (setting [6]) was 0.397 ± 0.03 µM. The “antiviral activity against VZV” value in data set [1] was “no antiviral activity”. Besides, the “antiviral activity against CMV” value in the data set on cytomegalovirus (CMV) is reported as “no antiviral activity”. In data set [2], the “2.1 Kb RNA, percentage of control” value is listed as 96 ± 8% and the “3.6 Kb RNA, percentage of control” value was determined as 103 ± 9%. In the data set on SK-MEL-2, the GI50 worked out at 15.4 µM, the LC50 was determined as 76.9 µM and the TGI was 34.5 µM. In addition, in the data set on 2.2.15 cells (setting [7]), the CC50 amounted to 501 µM. In [3], the “HBcAg, percentage of control” value is 109 ± 6%; the “HBeAg, percentage of control” value is listed as 8 ± 3 %; the “HBsAg, percentage of control” value amounted to 108 ± 18%. In addition, the “mode of inhibition of adenosine deaminase” value in [4] is “competitive inhibitor”. The “antiviral activity against HSV-2” value in the data set with HSV-2 is listed as “no antiviral activity”.
